Laboratory results reported in patent US5298494A, “Monosaccharides having anti-proliferation and anti-inflammatory activity, compositions and uses thereof” (Greenwich Pharmaceuticals Incorporated, priority 1993, dated 1994).

Experiments:
[1] = system: Interleukin 1 (IL-1) production by peritoneal macrophages; assay: IL-1 Assay: production of interleukin-1 by peritoneal macrophages (thymocyte bioassay); type: cell-based, mouse (C57B1/6); set-up: inhibition: dose or concentration left out as unconfirmed; details: for inhibition at 0.001 µg/mL / inhibition at 0.01 µg/mL / inhibition at 0.1 µg/mL / inhibition at 2.5 µg/mL / inhibition at 10 µg/mL / inhibition at 25 µg/mL / inhibition at 100 µg/mL / inhibition: Mus musculus, Peritoneal macrophage, read-out: % effect on IL-1 production (thymidine uptake by thymocytes)
Excerpt: Interleukin 1 (IL-1) is a potent immunomodulatory cytokine that has a broad range of pro-inflammatory activities. IL-1 is known to be produced by activated accessory cells such as macrophages. Accessory cell production of IL-1 results in the activation and proliferation of T and B lymphocytes. Therefore, by inhibiting macrophage activation and production of IL-1, the activation and proliferation of the cellular effectors of inflammation can be modulated. Compounds of the invention were screened for inhibitory activity in a classical IL-1 assay. Six to 8 week old male C57B1/6 mice were purchased from Harlan Sprague Dawley. Peritoneal macrophages were elicited by the administration to mice of a single intraperitoneal injection of 0.2 ml of complete Freund's adjuvant. After 48 hours, elicited macrophages were removed from the mice by lavage with the use of Hank's balanced salt solution. […] To the macrophage cultures were added various doses of the compounds of the invention and 10 ug/ml of the macrophage activator lipopolysaccharide (to stimulate IL-1 production). Control cultures consisted of macrophages, lipopolysaccharide and culture medium containing various doses of DMSO only. […] The amount of IL-1 produced in the individual wells was determined in a bioassay for IL-1. This involved the removal of thymuses from mice less than 8 weeks of age. Thymocytes were isolated by passing each thymus through a stainless steel mesh screen. […] After 18 hours cells were harvested and radioactive incorporation (as a measure of cell proliferation) was quantitated in a liquid scintillation counter. The students t test was used to determine the significance of the difference between experimental and control values.

[2] = system: T cell proliferation in mouse spleen cell mixed lymphocyte cultures; assay: Mixed Lymphocyte Reaction (MLR) assay; type: cell-based, mouse (Balb/c responder, C57B1/6 stimulator); details: for inhibition at 3 µM / inhibition at 10 µM / inhibition at 30 µM / inhibition at 100 µM / inhibition at 300 µM: Mus musculus, Lymphocyte, read-out: % Change From Control, MLR
Excerpt: The pharmacologic assays performed to determine the immunomodulatory effects of the experimental compounds in vitro include the Mixed Lymphocyte Reaction (MLR) and the ConA blastogenesis assay. These assays were used to determine the inhibitory effects of the compounds of the invention on T lymphocyte activation and proliferation. Since inflammation at the cellular level is characterized by T lymphocyte recruitment, activation and proliferation, these assays are appropriate to use as screens for novel compounds having therapeutic potential in the treatment of disorders in which inflammatory mechanisms are involved.
The MLR is a classical assay used to measure T cell function by studying the proliferative response of T cells which are activated in vitro by genetically disparate stimulator cells. This is accomplished by co-culturing spleen cells from two different strains of mice. Splenic T cell proliferation occurs as a result of cellular activation signals generated by the ongoing cellular interactions.
Balb/c mice were euthanised by cervical dislocation and their spleens removed. Single cell suspensions of the spleens were prepared in culture medium (hepes buffered RPMI-1640 supplemented with 10% fetal calf serum, 2mM glutamine, 500 units penicillin/ streptomycin, and 4×10^-5 M 2-mercaptoethanol) using a Teflon pestle. The cells were centrifuged at 1500 rpm and the pellets resuspended in ACT (0.15M tris, 0.14M ammonium chloride, pH 7.2) in order to lyse the red blood cells. After a 5 minute incubation in a 37 C. waterbath, the cells were resuspended in culture medium and counted. C57B1/6 spleen cells which were used as stimulator cells, were also prepared by this method. The stimulator cells were treated with 100 ug/ml of mitomycin c for 1 hour at 37 C. (to inhibit stimulatory cell proliferation) and were then washed 5 times in culture medium. The proliferative responses were measured by culturing 2.5×10^5 responder cells with 5×10^5 stimulatory cells in 96 well microtiter plates in the presence or absence of various doses of test compounds or vehicle (DMSO). Syngeneic control cultures using mitomycin c treated Balb/c spleen cells as stimulator cells were also run. All cultures were run in triplicate.
Solutions of compounds of the present invention in DMSO were prepared at a stock concentration of 120 Mm. Dilutions were made in culture medium to the following concentrations: 3, 10, 30, 100, and 300 uM. The vehicle (DMSO) was used as a negative control.
After incubation of for 5 days at 37 C. with 5% CO2, the amount of cell proliferation was measured by adding 20 ul of MTT (3-[4,5-dimethylthiazol-2-yl]-2,5diphenyl-tetrazolium bromide) (10 mg/ml in phosphate buffered saline) to each well. Plates were incubated for 4 hours at 37 C., after which 180 ul of 10% sodium dodecyl sulphate in phosphate buffered saline was added. After an overnight incubation, the optical density (OD) of each well was read on a Molecular Devices microplate reader at 570-650 nm. The results were determined by calculating the difference between the means of the allogeneic cultures and the means of the syngenic cultures for each test article concentration. Differences of the test article groups were compared to the control group and the percent change from the control was determined.

Row | SMILES | ^3 H-Thymidine uptake by thymocytes ([1]; 0.001 ug/ml) | ^3 H-Thymidine uptake by thymocytes ([1]; 0.01 ug/ml) | ^3 H-Thymidine uptake by thymocytes ([1]; 0.1 ug/ml) | ^3 H-Thymidine uptake by thymocytes ([1]; 1 ug/ml) | ^3 H-Thymidine uptake by thymocytes ([1]; 2.5 ug/ml) | ^3 H-Thymidine uptake by thymocytes ([1]; 10 ug/ml) | ^3 H-Thymidine uptake by thymocytes ([1]; 25 ug/ml) | ^3 H-Thymidine uptake by thymocytes ([1]; 100 ug/ml) | inhibition at 0.001 µg/mL ([1]; 0.001 ug/ml) | inhibition at 0.01 µg/mL ([1]; 0.01 ug/ml) | inhibition at 0.1 µg/mL ([1]; 0.1 ug/ml) | inhibition at 2.5 µg/mL ([1]; 2.5 ug/ml) | inhibition at 10 µg/mL ([1]; 10 ug/ml) | inhibition at 25 µg/mL ([1]; 25 ug/ml) | inhibition at 100 µg/mL ([1]; 100 ug/ml) | inhibition [1] | Mean O.D. Allogenic ([2]; 3 um) | Mean O.D. Syngeneic ([2]; 3 um) | Mean O.D. Allogenic ([2]; 10 um) | Mean O.D. Syngeneic ([2]; 10 um) | other results
1 | CC1(C)OC2OC(C(O)COCCCc3ccccc3)C(O)C2O1 [IIIe, 1,2-O-Isopropylidene-6-O-3'-(phenylpropyl)-α-D-glucofuranose] | 7,276 ± 399 cpm | 8,908 ± 773 cpm | 8,049 ± 282 cpm | 4,279 ± 691 cpm | 3,676 ± 506 cpm | 2,586 ± 553 cpm | 1,840 ± 301 cpm | 1,129 ± 299 cpm | -11% | -8% | -4% | 56% | 66% | 76% | 83% | -45% | 0.174 O.D. | 0.052 O.D. | 0.122 O.D. | 0.081 O.D. | Mean O.D. Allogenic ([2]; 30 um): 0.084 O.D.; Mean O.D. Syngeneic ([2]; 30 um): 0.066 O.D.; Mean O.D. Allogenic ([2]; 100 um): 0.034 O.D.; Mean O.D. Syngeneic ([2]; 100 um): 0.024 O.D.; Mean O.D. Allogenic ([2]; 300 um): 0.009 O.D.; Mean O.D. Syngeneic ([2]; 300 um): 0.010 O.D.; inhibition at 3 µM ([2]; 3 um): 19%; inhibition at 10 µM ([2]; 10 um): 73%; inhibition at 30 µM ([2]; 30 um): 88%; inhibition at 100 µM ([2]; 100 um): 93%; inhibition at 300 µM ([2]; 300 um): 101%
2 | CCCCC/C=C/COC[C@H]1O[C@@]2(OC)COC(C)(C)O[C@H]2[C@@H]1OC/C=C/CCCCC [Ie, methyl 1,3-O-isopropylidene-4,6-di-O-(trans,2-octenyl)-α-D-fructofuranoside] | 12,713 ± 866 cpm | 12,040 cpm | 11,047 ± 702 cpm | 9,710 ± 1,323 cpm | 7,000 ± 686 cpm | 6,100 ± 775 cpm | 5,300 ± 1,405 cpm | 4,300 ± 1,100 cpm | -17% | -11% | 1% | 30% | 40% | 40% | 51% | 12% | 0.341 O.D. | 0.133 O.D. | 0.318 O.D. | 0.130 O.D. | Mean O.D. Allogenic ([2]; 30 um): 0.266 O.D.; Mean O.D. Syngeneic ([2]; 30 um): 0.178 O.D.; Mean O.D. Allogenic ([2]; 100 um): 0.216 O.D.; Mean O.D. Syngeneic ([2]; 100 um): 0.146 O.D.; Mean O.D. Allogenic ([2]; 300 um): 0.152 O.D.; Mean O.D. Syngeneic ([2]; 300 um): 0.082 O.D.; inhibition at 3 µM ([2]; 3 um): -8%; inhibition at 10 µM ([2]; 10 um): 2%; inhibition at 30 µM ([2]; 30 um): 54%; inhibition at 100 µM ([2]; 100 um): 64%; inhibition at 300 µM ([2]; 300 um): 64%
